Source: patent publication US20250340671A1, “METHODS AND PHARMACEUTICAL COMPOSITIONS FOR REDUCING THE NEURO[…] OF COCAINE” (University of Cincinnati, priority 2022, published 2025)

Columns and labels:
[1] = system: lever-pressing behavior in rats; experiment: Single-dose reinstatement (SDR) of lever-pressing after 12 μmol/kg cocaine; type: in vivo, Male Sprague-Dawley rats; details: for average difference in latency between vehicle and SCH23390: 10 nmol/kg SCH23390 alone, absence of h2E2; for mean latency of lever-pressing behavior: 0 nmol/kg gave 17.11, FIG. 6; for mean duration of lever-pressing: 0 nmol/kg gave 35.44, FIG. 7
[2] = in vivo; cited from earlier work

Question: With CN1CCc2cc(Cl)c(O)cc2[C@@H](c2ccccc2)C1 [SCH23390] as the molecule, how does the “average difference in latency between vehicle and SCH23390” value ([1]; FIG. 9) read?
Answer: Its value is “about 2.81 minutes”.

Question: And the “average difference in latency between vehicle and SCH23390” value ([1]; FIG. 9, listed as SCH233390)?
Answer: The value was 2.81 min.

Question: And the “average duration of lever-pressing activity” value ([1]; 10 nmol/kg SCH23390 before SDR, in the presence of h2E2 (4 separate days from day seven after h2E2), FIG. 10)?
Answer: Its value is 9.28 min.

Question: And the “average decrease in latency versus the prior day (h2E2 alone)” value ([1]; 10 nmol/kg SCH23390 before SDR, in the presence of h2E2 (from seven days after 360 umol/kg h2E2), FIG. 9)?
Answer: The value was 2.56 min.

Question: What about the “mean latency of lever-pressing behavior” value ([1]; SCH23390 alone 10 nmol/kg IV before 12 μmol/kg cocaine SDR) of the same molecule?
Answer: Its value is 12.17.

Question: What about the “mean duration of lever-pressing” value ([1]; SCH23390 alone 10 nmol/kg) of the same molecule?
Answer: Its value is 23.16.

Question: And the “mean latency of lever-pressing behavior” value ([1]; SCH23390 alone 20 nmol/kg IV before 12 μmol/kg cocaine SDR)?
Answer: The value was 5.17.

Question: What about the “mean duration of lever-pressing” value ([1]; SCH23390 alone 20 nmol/kg) of the same molecule?
Answer: The value was 5.43.

Question: What about the “mean latency of lever-pressing behavior” value ([1]; SCH23390 alone 30 nmol/kg IV before 12 μmol/kg cocaine SDR) of the same molecule?
Answer: The value was 1.72.

Question: And the “mean duration of lever-pressing” value ([1]; SCH23390 alone 30 nmol/kg)?
Answer: The value was 2.05.

Question: What about the average latency ([1]; days with 10 nmol/kg SCH23390 in the presence of h2E2, FIG. 8) of the same molecule?
Answer: The average latency was 9.93 min.

Question: What about the t-max [2] of the same molecule?
Answer: Its t-max is “approximately 30 min”.
